Data set [1] in a line: HPLC analysis of encapsulated Olaparib (loading efficiency). It counts as physicochemical. The settings on record: across the batches. Here is the method:
HPLC analysis: The concentration of Olaparib encapsulated was determined using HPLC. The mobile phase was optimized to be methanol: water (64:36) run on a reverse phase C18 column (SUPELCO™), and the Olaparib was detected at 207 nm. All the doses used in the following studies were derived from the standard curve obtained using a working range of serially diluted Olaparib solutions in mobile phases as described above. The loading efficiency across the batches was around 80-90%.

Another data set has as its system LNCaP cells. Put plainly: Nuclear PARP cleavage assay by confocal microscopy. It counts as cell-based, human. The text has this:
(§1) Irradiation for in vitro studies: Radiation was delivered using the Small Animal Radiation Research Platform (SARRP) at DFCI, a gantry mounted x-ray tube and flat panel imager capable of fixed field irradiation, rotation therapy and cone-beam CT (CBCT) imaging. […] Here the radiation doses were optimized to 2 Gy (5.6 Gy/min for 22 sec) and 4 Gy (5.5 Gy/min for 44 sec) to irradiate the cells, which were pretreated with Olaparib/NanoOlaparib for 24 hrs.
(§2) Nuclear localization and early DNA damage determination: To assess the early DNA Damage and PARP inhibition pathway damage, including PARP, PARylation, PARP cleavage and yH2AX in the cell lines to various treatment conditions, the prostate cancer cell lines were seeded at 100,000 cells, exposed to 20 μM Olaparib/NanoOlaparib, with and without radiation for both immunoflorescence (confocal) and western blotting assays. PARP-1 is a 116 kDa nuclear protein which is strongly activated by DNA strand breaks. During apoptosis, proteins such as caspase-3 and -7, cleave the PARP to yield an 85 kDa and a 25 kDa fragment. The nuclear localization and extent of apoptosis was determined using nuclear PARP cleavage assay and western blotting was used to determine the relative cellular concentrations of PARP, PAR, and yH2AX for various treatments on all the cell lines. Briefly, 105 cells/well were seeded in a 6 well plate on sterile coverslips for 24 hours before adding the drugs. The cells were incubated with the drugs for either 4 hr s after which they were irradiated. The cells thus treated were incubated at 37° C. for 1 hour before fixing them for further analysis.
(§3) Nuclear PARP Cleavage assay using confocal microscopy: The cells were fixed with 1% formalin and kept at 37° C. for 15 min. The coverslips were given three PBS washings (3 min each) until the cells were free of fixing agent. The cells were rehydrated using PBS with 0.5% tween 80 for 30 min, washed with buffer and incubated with Anti-PARP Cleavage Site (214/215) specific antibody, FITC Conjugate (Life technologies, NY, Cat #44-699) for 1 hour. This antibody specifically recognizes the 85 kDa fragment of cleaved PARP and can be used as a marker for detecting apoptotic cells. The coverslips were washed twice and were mounted onto the glass slide using and the edges were sealed using nail polish. The images were taken using an Olympus FV1000, multi-photon confocal microscope (Olympus America, Inc., Central Valley, Calif.). The excitation filters used for imaging cleaved PARP (FITC) and DAPI were Ex-488, 405 respectively. The emission filters were set at 530, 458 nm for FITC and DAPI respectively. All the images were captured with a 60× objective. […] Statistical significance was analyzed using two way ANOVA and Dunnet's multiple comparison tests in Graph Pad Prism.

The next data set relates to PC3 cells. Put plainly: Nuclear PARP cleavage assay by confocal microscopy. The class given is cell-based, human. The settings on record: PC3, DAPI.
From the text: as §1, §2, §3

The next data set concerns FKO1 cells. Put plainly: Nuclear PARP cleavage assay by confocal microscopy. It counts as cell-based, mouse. The settings on record: FKO1, DAPI.
From the text: as §1
Nuclear localization and early DNA damage determination: To assess the early DNA Damage and PARP inhibition pathway damage, including PARP, PARylation, PARP cleavage and yH2AX in the cell lines to various treatment conditions, the prostate cancer cell lines were seeded at 100,000 cells, exposed to 20 μM Olaparib/NanoOlaparib, with and without radiation for both immunoflorescence (confocal) and western blotting assays. […] The nuclear localization and extent of apoptosis was determined using nuclear PARP cleavage assay and western blotting was used to determine the relative cellular concentrations of PARP, PAR, and yH2AX for various treatments on all the cell lines. […]
Nuclear PARP Cleavage assay using confocal microscopy: The cells were fixed with 1% formalin and kept at 37° C. for 15 min. […] Statistical significance was analyzed using two way ANOVA and Dunnet's multiple comparison tests in Graph Pad Prism.

Data set [2] concerns PC3. Put plainly: Delayed viability assay after radiosensitization (modified clonogenic assay). It counts as cell-based, human. Here is the method: In vitro characterization of NanoOlaparib: For in vitro studies we used PTEN deficient human prostate cancer cell lines PC3 (ATCC), LNCaP (ATCC) and mouse cell line FKO1. […] Briefly, a complete media was formulated by adding 10% Fetal Bovine Serum from HyClone (FBS) to F12-k (PC3), RPMI (LNCaP) and DMEM supplemented with growth factors such as Bovine Pituitary Extract, (Life Technologies cat #: 13028014), final conc. 25ug/ml, Insulin, (Sigma Aldrich Cat#:16634-50 mg), final conc. 5ug/ml, EGF (Life Technologies Cat#:PHG0311), final conc 6 ng/ml (FKO1). The FKO1 cells were grown on collagen-coated plates (VWR Cat#: 47743-656). CellTiter-Glo® luminescent cell viability reagent was ordered from Promega, CA Cat # G7570. […]
(§4) Delayed viability assay after radiosensitization: Based on several studies, we modified the general clonogenic assay protocol to determine the long term effects of radio-sensitization with olaparib and NanoOlaparib (42, 43). The percent cell viability was determined using the modified clonogenic assay at 2 Gy and 4 Gy doses. […] The cell density was determined using automated cell counter and 10,000 and 20,000 cells from each treatment group was calculated and seeded in fresh 6 well plates. […] The stain was then dissolved in acetic acid to quantify the effect of Olaparib and NanoOlaparib treatments for all the cell lines.

For another data set, the system named is FKO1. Described as above. The class given is cell-based, mouse. How it is done:
In vitro characterization of NanoOlaparib: For in vitro studies we used PTEN deficient human prostate cancer cell lines PC3 (ATCC), LNCaP (ATCC) and mouse cell line FKO1. […] Briefly, a complete media was formulated by adding 10% Fetal Bovine Serum from HyClone (FBS) to F12-k (PC3), RPMI (LNCaP) and DMEM supplemented with growth factors such as Bovine Pituitary Extract, (Life Technologies cat #: 13028014), final conc. 25ug/ml, Insulin, (Sigma Aldrich Cat#:16634-50 mg), final conc. 5ug/ml, EGF (Life Technologies Cat#:PHG0311), final conc 6 ng/ml (FKO1). The FKO1 cells were grown on collagen-coated plates (VWR Cat#: 47743-656). CellTiter-Glo® luminescent cell viability reagent was ordered from Promega, CA Cat # G7570. Clonogenic assay kit was bought from BioPioneer, CA, Cat # CODE: CA-001.
as §1
as §4, with “doses. Irradiation was carried out in prostate cancer cell lines, LNCaP PC3 and FKO1 as described above.” for “doses.”

Data set [3] concerns PC3. Put plainly: Synergism with irradiation, combination index by CalcuSyn. The class given is cell-based, human. To be noted: PC3, 20 μM with irradiation. How it is done:
Determination of Synergism using CalcuSyn: The fraction of cells affected (Fa) in response to Olaparib and Nanoolaparib treatment was determined as discussed in above sections. The fraction of cells affected by irradiation alone and the combination therapy was determined by the delayed cell viability assay and these values were utilized to perform synergyism analysis. A non-constant ratio combination design as formulated by CalcuSyn (Biosoft) based on the Chou-Talalay isobologram equation was used to calculate the Combination index (44). All the cells were exposed to 20 μM Olaparib or NanoOlaparib with increasing doses of Irradiation. The CI values were generated from isobolograms. All assays were performed in duplicates. Bars represent the Combination index (CI) of Olaparib and Nanoolaparib on LNCaP, PC3 and FKO1 in combinations with irradiation. The CI values generated for all the treatment groups are reported in the bar graphs are derived from duplicate experiments. The extent of synergism is postulated as indicated by the Chou-Talalay method.

Regarding `O=C(c1cc(Cc2n[nH]c(=O)c3ccccc23)ccc1F)N1CCN(C(=O)C2CC2)CC1` [Olaparib, 4-(3-(1-(cyclopropanecarbonyl)piperazine-4-carbonyl)-4-fluorobenzyl)phthalazin-1(2H)-one], the loading efficiency in data set [1] is 80-90%. Moreover, the “location of cleaved PARP” value in the data set on LNCaP cells (1 hr post irradiation) is “predominantly found in the perinuclear region”. For the same molecule, in the data set on LNCaP cells (DAPI, 20 μM), the “increase in nuclear area” value is on record as 3 fold. The “increase in cleaved PARP upon monotherapy” value with LNCaP cells (no irradiation, 20 μM) was found to be 20 fold. In addition, the “change in nuclear size” value in the data set on PC3 cells and in the data set on FKO1 cells was “No significant change” each time. In addition, the cell death was 80% in the data set on PC3 [2] (PC3, 20 uM with 2 Gy) and 68% in the data set with FKO1 (FKO1, 20 uM with 2 Gy). Also, the “cell death, monotherapy” value in the data set with PC3 [2] (PC3, 20 uM, no irradiation) came to 78%; in the data set with FKO1 (FKO1, 20 uM, no irradiation), 53%. The cell kill with FKO1 (FKO1, 20 uM combined with 4 Gy radiation) came to 82%. The “combinatorial effect of drug and irradiation (CI)” value with PC3 [3] was “additive effect”.
